# From US12428455B2, “Dominant negative CEBPB and CEBPD proteins and methods of use for decreasing viability of neoplastic cells” (The Trustees of Columbia University in the City of New York, priority 2018, dated 2025)
# No end group written: not given here.
# Tests used:
# MCF7 breast cancer cells = assay: Cell number after peptide treatment, MCF7; format: cell-based; details: 6 days, 0 μM to 50 μM; stock without BSA
# Experimental: (§1) Replicate cultures were exposed to the peptides the for 6 days at the indicated concentrations. Stock solutions of the peptides were prepared in buffer without added bovine serum albumin (BSA).
# Replicate cultures of HCT116, MDA-MB 231, MCF7, and T98G cells were exposed to a 50/50 by concentration mixture of CP-DN-CEBPB and CP-DN-CEBPD for 6 days at doses of 0 μM to 50 μM. Stock solutions of the peptides were prepared in buffer without added bovine serum albumin (BSA).
# Replicate cultures of T98G, HCT116, MDA-MB 231, and MCF7 cells were exposed to CP-DN-CEBPB, CP-DN-CEBPD, or a CP-DN-CEBPD in which heptad repeat leucine residues were mutated to glycine residues for 6 days at doses of 0 μM to 50 μM. Stock solutions of the peptides were prepared in buffer without added bovine serum albumin (BSA).
# [1] = tested on: B16 murine melanoma cells; assay: Cell number after peptide treatment, B16; format: cell-based; details: 6 days, 0 μM to 50 μM; stock without BSA
# Experimental: as §1
# [2] = tested on: MDA-MB-468 breast cancer cells; assay: Cell number after peptide treatment, MDA-MB-468; format: cell-based, human; details: 6 days, 0 μM to 50 μM; stock without BSA
# Experimental: (§2) Replicate cultures of MDA-MB-468 breast cancer cells, A549 lung cancer cells and 293T transformed embryonic kidney cells were exposed to CP-DN-CEBPB or CP-DN-CEBPD, for 6 days at doses of 0 μM to 50 μM. […] Stock solutions of the peptides were prepared in buffer without added bovine serum albumin (BSA).
# [3] = tested on: 293T transformed embryonic kidney cells; assay: Cell number after peptide treatment, 293T; format: cell-based; details: 6 days, 0 μM to 50 μM; stock without BSA
# Experimental: as §2
# MDA-MB 231 cells [4] = assay: Colony forming activity on culture plates, MDA-MB 231; format: cell-based; details: 6 days; doses 0.05, 0.5 and 5 μM
# Experimental: (§3) T98G (FIG. 21A), MDA-MB 231 (FIG. 21B), and HCT116 (FIG. 21C) cells were exposed to CP-DN-CEBPB and CP-DN-CEBPD for 6 days at doses of 0.05 μM 0.5 μM, and 5 μM while growing in soft agar. Growth was inhibited by does as low as 0.5 μM. T98G (FIG. 21D), MDA-MB 231 (FIG. 21E), and HCT116 (FIG. 21F) cells were exposed to CP-DN-CEBPB and CP-DN-CEBPD for 6 days at doses of 0.05 μM 0.5 μM, and 5 μM while growing on culture plates. Growth was inhibited by does as low as 0.5 μM.
# HCT116 cells [5] = assay: Colony forming activity on culture plates, HCT116; format: cell-based; details: 6 days; doses 0.05, 0.5 and 5 μM
# Experimental: as §3
# MCF7 cells [6] = assay: Apoptotic nuclei, propidium iodide flow cytometry, MCF7; format: cell-based; details: 20 μM, 3 days, vs untreated cells
# Experimental: (§4) MDA-MB-231, MCF7, HCT116 and T98G cancer cell lines were treated for 3 days with 20 μM CP-dn-CEBPB and CP-dn-CEBPD peptides from stock solutions prepared without additives. Cultures were stained with propidium iodide and assessed for proportion of cells with apoptotic nuclei by flow cytometry.
# HCT116 cells [7] = assay: Apoptotic nuclei, propidium iodide flow cytometry, HCT116; format: cell-based; details: 20 μM, 3 days, vs untreated cells
# Experimental: as §4
# MDA-MB-231 cells = assay: Combination with paclitaxel, cell number, MDA-MB-231; format: cell-based; details: 1 nM or 5 nM paclitaxel and 3, 10 or 20 μM peptide, 6 days
# Experimental: (§5) Replicate cultures of T98G, MDA-MB 231, and MCF7 cells were treated with 1 nM or 5 nM paclitaxel and 3 μM, 10 μM, or 20 μM CP-dn-CEBPB and CP-dn-CEBPD peptides, maintained for 6 days, and then assessed for cell number. The bar graphs of FIGS. 26A (T98G, CP-dn-CEBPB), 26C (T98G, CP-dn-CEBPBD, 26E (MDA-MB-231, CP-dn-CEBPBD), 26G (MDA-MB-231, CP-dn-CEBPD), 26I (MCF7, CP-dn-CEBPBB), and 26K (MCF7, CP-dn-CEBPBD) show relative cell numbers for each condition as compared to untreated controls. The line graphs of FIGS. 26B (T98G, CP-dn-CEBPB), 26D (T98G, CP-dn-CEBPBD), 26F (MDA-MB-231, CP-dn-CEBPB), 26H (MDA-MB-231, CP-dn-CEBPD), 26J (MCF7, CP-dn-CEBPB), and 26L (MCF7 CP-dn-CEBPBD) show the response as normalized in each case so that 100 represents the relative number of surviving cells that received the indicated level of paclitaxel, but no peptide treatment. Calculated combination indices (CI) were as follows: MCF7: CI=0.41±0.04 for CP-dn-CEBPB; 0.44±0.04 for CP-dn-CEBPD; MDA-MB-231: 0.74±0.03 for CP-dn-CEBPB; 0.74±0.05 for CP-dn-CEBPD; T98G: CI=0.84±0.06 for CP-dn-CEBPB and 0.75±0.07 for CP-dn-CEBPD.
# MCF7 cells [8] = assay: Combination with paclitaxel, cell number, MCF7; format: cell-based; details: 1 nM or 5 nM paclitaxel and 3, 10 or 20 μM peptide, 6 days
# Experimental: as §5
# MDA-MB 231 cells [9] = assay: Combination with chloroquine, cell number, MDA-MB 231; format: cell-based; details: 5 μM or 10 μM chloroquine and 3 μM or 10 μM peptide, 6 days
# Experimental: Replicate cultures of T98G, MDA-MB 231, and HCT116 cells were treated with 5 μM or 10 μM chloroquine and 3 μM or 10 μM CP-dn-CEBPB and CP-dn-CEBPD peptides, maintained for 6 days, and then assessed for cell number. The bar graphs of FIGS. 29A (T98G, CP-dn-CEBPB), 29C (T98G, CP-dn-CEBPBD, 29E (MDA-MB-231, CP-dn-CEBPBD), 29G (MDA-MB-231, CP-dn-CEBPD), 29I (HCT116, CP-dn-CEBPBB), and 26K (HCT116, CP-dn-CEBPBD) show relative cell numbers for each condition as compared to untreated controls. The line graphs of FIGS. 26B (T98G, CP-dn-CEBPB), 26D (T98G, CP-dn-CEBPBD), 26F (MDA-MB-231, CP-dn-CEBPB), 26H (MDA-MB-231, CP-dn-CEBPD), 26J (HCT116, CP-dn-CEBPB), and 26L (HCT116 CP-dn-CEBPBD) show the response as normalized in each case so that 100 represents the relative number of surviving cells that received the indicated level of chloroquine, but no peptide treatment. The results ranged from near-additive (HCT116 cells, CI=0.92±0.08 for CP-dn-CEBPB and 0.87±0.07 for CP-dn-CEBPD) to apparent synergy (T98G, CI=0.56±0.06 for CP-dn-CEBPB and 0.75±0.03 for CP-dn-CEBPD; MDA-MB-261, CI=0.59±0.11 for CP-dn-CEBPB and 0.47±0.05 for CP-dn-CEBPD).
Sequence,growth and survival / numbers of MCF7 cells (MCF7 breast cancer cells),growth and survival of B16 cells [1],number of MDA-MB-468 cells [2],number of 293T cells [3],"lowest dose at which growth was inhibited, culture plates (MDA-MB 231 cells [4]) [µM]","lowest dose at which growth was inhibited, culture plates (HCT116 cells [5]) [µM]",proportion of cells with apoptotic nuclei (MCF7 cells [6]),proportion of cells with apoptotic nuclei (HCT116 cells [7]),combination index (CI) with paclitaxel (MDA-MB-231 cells),combination index (CI) with paclitaxel (MCF7 cells [8]),CI with chloroquine (MDA-MB 231 cells [9])
RQIKIWFQNRRMKWKKLETQHKVLELTAENERLQKKVEQLSRELSTLRNLFKQL [CP-DN-CEBPB],decrease in growth and survival,decrease in growth and survival,dose-dependent decrease in the number,dose-dependent decrease in the number,0.5,0.5,increased apoptotic cell death,increased apoptotic cell death,0.74±0.03,0.41±0.04,0.59±0.11
RQIKIWFQNRRMKWKKLVELSAENEKLHQRVEQLTRDLAGLRQFFK [CP-DN-CEBPD],decrease in growth and survival,decrease in growth and survival,dose-dependent decrease in the number,dose-dependent decrease in the number,0.5,0.5,increased apoptotic cell death,increased apoptotic cell death,0.74±0.05,0.44±0.04,0.47±0.05
